By EC50 is commonly meant the concentration at which the effect is half-maximal. By melting point is commonly meant the temperature, or range, at which the solid turns liquid.

The test system of one data set is beta amyloid protein. The conditions noted are these: in vivo after oral administration; cited from earlier work.
Data set [1] relates to amyloid precursor protein (APP) proteolysis. As to the kind of experiment: Repressor Release Assay (RRA). Also noted: key to RRA data (footnote symbols): **: Inactive due to toxicity; however, this compound, at 3-4 μM, reduces Aβ levels by 50% in CHO cells transfected with human APP695 as measured by ELISA without exhibiting toxicity.; ***: Inactive; however, this compound, at 1-4 μM, reduces Aβ levels by 50% in CHO cells transfected with human APP695 as measured by ELISA without exhibiting toxicity. The class given is cell-based. The procedure, abridged: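 CHO-K1 cells transiently transfected with APP-lacI and pRSVO-luc, then treated in duplicate with compound for 36–48 h at 37° C. Luciferase read as fold increase over Hepes/DMSO diluent; active means ≥1.5-fold at 20 μg/mL and non-toxic, toxicity being <0.75-fold signal.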

For the next data set, the system named is beta amyloid 42. Description: Aβ40/42 ELISA Assay (Aβ42). Format: cell-based. Particulars: Cricetulus griseus; CHO cells carrying the APP-REP-NL plasmid, 22 hours, sandwich ELISA. Put shortly: (§1)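 Test compounds at 2 μM and below are applied for 22 h to CHO cells stably carrying APP-REP-NL. Secreted Aβ40 or Aβ42 in conditioned medium is measured by sandwich ELISA against synthetic peptide standards, using 6E10 capture with C-terminus-specific anti-Aβ40 or anti-Aβ42 detection. Toxicity is checked by MTS read-out; EC50 reported.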

For the next data set, the system named is beta amyloid 40. As to the kind of experiment: Aβ40/42 ELISA Assay (Aβ40). Particulars: Cricetulus griseus; CHO cells carrying the APP-REP-NL plasmid, 22 hours, sandwich ELISA. The class given is cell-based. The procedure, abridged:
as §1
For orientation: In an ELISA, binding on a coated surface is turned into a signal by an enzyme label.

For the compound `C[C@H](NC(=O)Cc1cc(F)cc(F)c1)C(=O)N[C@H](C(=O)OC(C)(C)C)c1ccccc1` [DAPT, reference compound], the “beta amyloid protein levels in mice brains” value with beta amyloid protein is “reduce beta amyloid protein levels”. In addition, the “fold increase in luciferase activity” value in data set [1] (at 20 μg/mL) is given as 18.5-28.1 fold increase.

Compound `CCC(CC)C(NS(=O)(=O)c1ccc(Cl)s1)c1ccnn1S(=O)(=O)c1ccc(C)cc1` (stereo not shown) [Example 9, 5-Chloro-N-(2-ethyl-1-{1-[(4-methylphenyl)sulfonyl]-1H-pyrazol-5-yl}butyl)thiophene-2-sulfonamide] displayed a melting point of 146 to 148 °C. For the same compound, the EC50 in the data set with beta amyloid 42 turned out to be 4.5 µM. For the same compound, in the data set on beta amyloid 40, the response was half-maximal at 3 µM (EC50). The “RRA data (footnote symbols)” value in data set [1] (tested at 20 μg/mL, transfected CHO-K1 cells) is “***”.

Turning to `CC(NS(=O)(=O)c1ccc(Cl)s1)c1ncnn1Cc1ccccc1` (stereo not shown) [Example 25, N-[1-(1-Benzyl-1H-1,2,4-triazol-5-yl)ethyl]-5-chlorothiophene-2-sulfonamide], the melting point lay within 123 to 124 °C. For the same compound, it took 90 µM to reach a half-maximal effect in the data set on beta amyloid 42 (EC50). In the data set with beta amyloid 40, this compound returned a concentration giving a half-maximal response (EC50) of 42.5 µM. For the same compound, in data set [1] (Cricetulus griseus, CHO-K1, all compounds tested at 20 μg/mL, luciferase activity over diluent control, transfected CHO-K1 cells, read-out: RRA data (Fold increase of APPI)), the fold induction at 20 µg/mL amounted to 6.6.

These data come from patent publication US7674813B2, “Heterocyclic sulfonamide inhibitors of beta amyloid production containing an azole” (Wyeth, priority 2004, dated 2010).
